According to article PMC11544189 (Acta Pharmaceutica Sinica. B, 2024):

Tested on: σ1 receptor
Test: σ[…] protein/BiP dissociation assay
Type: cell-based

IC50: 362 nM
SMILES: CSC(=S)NCCNC(=O)CCC(=O)Nc1cccc2ccccc12 [Amylovis-201, Methyl (2-{[4-(1-naphthylamino)-4-oxobutanoyl]amino}ethyl)dithiocarbamate]
